We go through five molecules from patent publication US12605390B2, “Treatment of cancer and inhibition of metastasis” (Celex Oncology Innovations Limited, priority 2017, dated 2026).

Data set [1] has as its system MDA-MB-231 cells. The data set can be described thus: MTT proliferation assay. It counts as cell-based, human. The conditions noted are these: 48 hours; for effect on cell proliferation versus negative controls: 10 μM, hypoxic and normoxic conditions. How it is done:
Cells were plated at 2×10^4 cells/ml in 24-well plates (Becton-Dickinson) and allowed to settle overnight. The cells were then treated for the required time of incubation (24 hours+), with medium changes every 24 hours. At the end of the treatment, the medium was removed, and this was followed by the colorimetric 3-[4,5-dimethylthiazol-2-yl]-2,5-diphenyltetrazolium bromide ([…]) assay (Grimes et al., 1995). Briefly, 0.1 ml MU (5 mg/ml made up in the growth medium) and 0.4 ml growth medium was added in each well and the plate was incubated for 3-4 hours at 37° C. The medium was then removed from the chambers and replaced with 0.5 ml dimethyl sulfoxide (DMSO) and 0.063 ml glycine buffer (0.1 M glycine and 0.1 M NaCl; pH 10.5). Absorbance at 570 nm was determined 15 minutes after the addition of the glycine buffer. Results were calculated as means of nine repeats of each of the treatment vs. control spectrophotometer readings from individual invasion wells.
Proliferation was indirectly measured using MTT (3-(4,5-dimethylthiazolyl-2)-2,5-diphenyltetrazolium). In principle, MTT is taken up and processed by metabolically active cells, which produce formazan as a by-product. Formazan is a purple dye which can be quantified on a spectrophotometer, providing a link between absorbance readings (570 nm) and cell number.
Cells were plated in 24-well plates at a density of 2×10^4 cells per well and pre-treated with 1 ml of the respective drug solutions (see FIG. 5.) for 48 hours in hypoxia and normoxia. 0.1 ml of MU (1 mg/ml) diluted in 0.4 ml of media was administered to each well, followed by 4 hours of incubation in dark, normoxic conditions (MU is light—sensitive). The solution was subsequently aspirated and 0.5 ml of 99.9% DMSO was added in combination with 75 μL glycine buffer. The dye was able to dissolve in DMSO during a 15 minute—incubation on a shaking platform at 150 cycles/minute. The absorbance was read using ELX800 Universal Microplate Reader (BioTek Instruments) with the background measuring 0.04. […]

The subject of data set [2] is MDA-MB-231 cells. The data set can be described thus: Matrigel invasion assay under hypoxia. In kind it is cell-based, human. How it is done:
This assay is an extension of the transverse migration assay described above. To “invade”, the cells need both (i) to move as in the transverse migration assay and (ii) secrete a proteolytic enzyme to digest their surroundings. The ability of cells to invade neighbouring tissues by enzyme secretion was therefore assessed by using a layer of Matrigel™ (BD Biosciences) spread across the porous membrane of a Transwell® insert.
50 μl Matrigel™ was seeded at a 1:7 dilution (10 mg/ml stock) onto the inserts and left overnight. Prior to seeding with the cells the Matrigel™ was rehydrated using medium with no additions. This medium was removed prior to seeding the cells.
Cells were plated in a 1-5% FBS chemotactic gradient overnight (12 hours).
Invaded cells were fixed for 15 minutes with ice-cold methanol. […] The inserts were swabbed again and then washed in water and allowed to dry. Cells were then counted using twelve separate fields of view per insert (×200 magnification). If the difference in the average number of cells invading the two control inserts was more than 40%, the experiment was rejected.
The matrigel solidified at 37° C. normoxia overnight and was hydrated at 37° C. normoxia for 3 hours using 0.5 ml FBS-free media. 300 μL of media containing 5% FBS was administered to the lower chamber and the same amount of media containing 1% FBS was added to the upper chamber (transwell filters). 2×10^4 cells were added to the 1% solution, allowing their invasion through the matrigel along the chemotactic gradient. Cells were left to settle and invade under hypoxic conditions overnight.

The target of another data set is T1, persistent current (Homo sapiens, UniProt Q14524).
T1 construct: transient and persistent sodium current, using the highly invasive human breast cancer cell line MDA-MB-231; endogenous in cells; host or cells: MDA-MB-231
Briefly: Patch-clamp (data not shown). It counts as cell-based. Conditions: 10 μM. In general terms: Patch clamp records ionic current or voltage across a cell membrane.

In another data set the test system is neonatal Nav1.5. Briefly: Immunocytochemistry of nNav1.5 protein expression in MDA-MB-231 cells. The conditions noted are these: 10 μM, 24 hour treatment, normoxic and hypoxic conditions. It counts as cell-based, human. The procedure: Cells were pre-treated with either 10 μM Eleclazine or DMSO in both normoxic and hypoxic conditions for 24 hours. The following day, round 13 mm coverslips were placed into 24-well plates and incubated with 0.5 ml poly-L-lysine for 20 minutes. The solution was aspirated and 2×10^4 pre-treated cells were added on top of each coverslip. The wells were filled up to 0.5 ml with the respective drug solutions and cells were left to settle onto the coverslips in normoxic and hypoxic conditions overnight.
Cells were washed with PBS and fixed by incubating coverslips with 0.5 ml 4% PFA (in PBS) for 15 minutes. Coverslips were then washed in PBS three times for 5 minutes. Half of the samples were permeabilised in 0.1% Saponin/PBS (4 minutes) followed by three 5 minute washes in PBS. Cells were blocked for 1 hour with 0.5 ml 5% BSA/PBS (pH 7.4). Coverslips were incubated with 70 μL NESOpAb (primary antibody specific for neonatal Nav1.5; 1:100 dilution) for 1 hour in a humidity chamber (room temperature). Three 5 minute PBS washes rinsed off residual NESOpAb and the secondary antibody (goat anti-rabbit IgG Alexa Fluor 568, 1:100 dilution) was administered for 1 hour in the dark. […]
Imaging was conducted on a Zeiss axiovert 200 inverted microscope. […] The corrected total cell fluorescence was quantified using ImageJ.

Data set [3] concerns MDA-MB-231 cells. The data set can be described thus: Lateral motility (wound heal) assay. The conditions noted are these: 10 μM, hypoxic conditions. It counts as cell-based, human. The procedure: In order to determine lateral motility, a “wound-heal (“scratch”)” test was carried out, in which a scratch 504 of […] was made through the layer of cells, as shown in FIG. 5(b) which is a side sectional view of the cell culture dish. During the period of 24 hours following the formation of the scratch, the cells moved into the gap.
10^6 cells were plated in each 35×10 mm dish and kept in normoxic conditions to settle overnight. Each dish was marked by 15 parallel vertical lines and 3 non-overlapping horizontal lines. The media was refreshed and three wounds were made along the marked vertical lines using a 1 ml Gilson pipette tip. Floating cells were removed by 3 consecutive media washes and adherent cells were treated with 1 ml of the respective drug solution (10 μM Eleclazine/DMSO). The initial wound width (W0) was measured at 45 fixed points (where the vertical lines cross the wounds) using the graticule on a phase-contrast microscope (×10 magnification). Cells were then incubated in both normoxic and hypoxic conditions, with drug solutions being replaced every 24 hours. Wound width was measured every 12 hours and the motility of this breast cancer cell line was analysed using the “motility index” (MI=1-(Wt/W0)). A motility index of 1 accounts for complete wound closure, whereas MI=0 represents zero cell movement. […]

Data set [4] relates to MDA-MB-231 cells. In kind it is cell-based, human. Conditions: 20 μM, 48 hours. How it is done: Cells were seeded at a density of 5×10^4 cells/ml in 35 mm Falcon tissue culture dishes. After treatment with a given drug, the medium was removed and replaced with 800 μl of growth medium and 200 μl 0.4% trypan blue (Sigma, Dorset, UK) and incubated for 10 minutes in the incubator. The trypan blue was removed and the cells were washed once with 3 ml growth medium. For each treatment, cells from 30 random fields of view were counted under 100× magnification. The number of dead cells, stained blue, was counted in each field of view. The data were expressed as percentages of living cells out of the total number of cells in given fields of view. The percentages were averaged and differences between control and treatment were compared from at least three independent experiments.
Cell viability and therefore drug toxicity was determined using the trypan blue assay. The procedure follows the principle that viable cells surrounded by an intact double membrane cannot absorb the trypan blue dye, whereas dead and fragmented cells can. […]
The solution was subsequently replaced with 0.2 ml of 0.4% trypan blue (Sigma-Aldrich) and 0.8 ml of media. […] Cell viability was determined by counting the proportion of viable and dead cells in 30 fields of view on each dish (Zeiss Axiovert 25 phase contrast microscope, ×40 magnification).

For data set [5], the system named is MDA-MB-231 cells. Conditions: 24 hours.

Each structure is given as a SMILES string. Read-outs that look alike come from different tables or passages of the source.

For `CC[N+](CC)(CC)CC` [TEA], in the data set with MDA-MB-231 cells [1] (2 mM, positive control), the “reduction of cell proliferation” value was “approximately 50%”.

For the molecule `NC1=N[C@H](O)[C@H]2[C@H]3O[C@]4(O)O[C@@H]([C@@H](O)[C@@]2(N1)[C@@H]4O)[C@]3(O)CO` [TTX, tetrodotoxin, reference compound], in the data set on MDA-MB-231 cells [2], the effect on invasiveness entry was “decreases”.

As for `O=C1c2cc(-c3ccc(OC(F)(F)F)cc3)ccc2OCCN1Cc1ncccn1` [eleclazine, 4-(pyrimidin-2-ylmethyl)-7-(4-(trifluoromethoxy)phenyl)-3,4-dihydrobenzo[f][1,4]oxazepin-5(2H)-one], the “effect on cell proliferation versus negative controls” value with MDA-MB-231 cells [1] was “no statistically significant difference”. Moreover, the “effect on persistent current” value on persistent current is “effectively blocked”. In the data set on MDA-MB-231 cells [2] (0.5 μM, hypoxia (1% O2), 24 h pre-incubation, invasion over 16 h), the effect on invasiveness result was “does not affect invasiveness”. Besides, the “number of cells invading, median (interquartile range)” value with MDA-MB-231 cells [2] (1 μM, hypoxia (1% O2), 24 h pre-incubation, invasion over 16 h, control 175.0 (113 & 255)) was 131.5 (100 & 175). Besides, the reduction of invasiveness result with MDA-MB-231 cells [2] (5 μM, hypoxia) is on record as “approximately 50%”. Also, the “effect on invasiveness (preliminary assays)” value in the data set with MDA-MB-231 cells [2] (10 μM, hypoxic conditions) is recorded as “drastically reduced”. For the same molecule, the “nNav1.5 protein expression, corrected total cell fluorescence (CTCF)” value in the data set with neonatal Nav1.5 is on record as “statistically significant reduction”. The figures for the “reduction of lateral motility” value in the data set on MDA-MB-231 cells [3] (after 12 hours) and in the data set on MDA-MB-231 cells [3] (after 48 hours) were 5% and 30%, respectively. In addition, the “average proportion of viable cells per field of view” value in the data set with MDA-MB-231 cells [4] is listed as 99.96%.

Consider `OO` [hydrogen peroxide], for which the “mean detachment negative pressure, change versus untreated cells” value in the data set with MDA-MB-231 cells [5] (1 μM) was “approximately −9%”; with MDA-MB-231 cells [5] (10 μM) it was “approximately −14%”; with MDA-MB-231 cells [5] (100 μM), “approximately −20%”.

As for `COc1ccccc1OCC(O)CN1CCN(CC(=O)Nc2c(C)cccc2C)CC1` (centres unmarked) [ranolazine, reference compound], in the data set on MDA-MB-231 cells [1], the “effect on cell proliferation versus negative controls” value is recorded as “no significant effect”. The effect on invasiveness result in the data set on MDA-MB-231 cells [2] (5 μM, hypoxia (1% O2), 24 h pre-incubation, invasion over 16 h) is on record as “suppress invasiveness significantly”.
